Measurements taken from patent publication US4152436A, “Acylated pentadienone hydrazone, method for preparing the same, and use as fire ant control agents” (American Cyanamid Company, priority 1978, dated 1979).

Assays:
[1] = Solubility in soybean oil; format: physicochemical
From the text: Determination of the Solubility of the Compounds of the Invention in Soybean Oil
The sample of the compound is then reweighed, the difference between the initial and final weights corresponding to the weight of the compound in solution.

[2] = system: Tobacco Budworm [Heliothis virescens (Fabricius)]; assay: Insecticide test, tobacco budworm 1st instar (eggs / newly hatched larvae on dipped cotton leaf); format: in vivo; details: 72 h, read-out: % kill, Tobacco Budworm 1st Instar
Protocol: Tobacco Budworm [Heliothis virescens (Fabricius)]
A cotton plant with 2 true leaves expanded is dipped for 3 seconds with agitation in a 300 ppm solution. A 1.25 to 2 cm square of cheesecloth with about 50 to 100 budworm eggs 0-24 hours old is also dipped in the test solution and placed on one leaf to dry. The leaf with the treated budworm eggs is removed from the plant and placed in a 236.6 ml (8-oz) Dixie cup with a wet 5 cm piece of dental wick and covered with a lid. The other leaf is placed in a similar cup with a wick and a piece of cheesecloth infested with 50-100 newly hatched larvae is added before covering the cup with a lid. After 3 days at 26.7° C., observations of egg hatch are made as well as kill of newly hatched larvae, any inhibition of feeding, or interference of any sort with normal development.
(§1) Compounds rated active (8 or 9) are further tested at reduced concentrations in 50% acetone:50% water.

[3] = system: Cabbage Looper [Trichoplusia ni (Hubner)]; assay: Insecticide test, cabbage looper 3rd instar; format: in vivo; details: 48 h, 2 days, 26.7° C., read-out: % kill, Cabbage Looper 3rd Instar
Protocol: Cabbage Looper [Trichoplusia ni (Hubner)]
A primary leaf of a cotton plant is dipped in the test solution and agitated for 3 seconds. It is then set in a hood to dry. Following this, the leaf is placed in a 10 cm petri dish containing a moist filter paper at the bottom and 10 third-instar loopers. The dish is covered and held at 26.7° C. After 2 days, mortality counts and estimates of feeding damage are recorded. Those materials showing partial kill and/or inhibition of feeding are held for another day for further observations.
as §1

[4] = system: Tobacco Budworm [Heliothis virescens (Fabricius)]; assay: whole plant or invertebrate; format: in vivo; details: 72 h, read-out: % kill, Tobacco Budworm 3rd Instar
Protocol: Third Instar Three cotton plants with just expanded cotyledons are dipped in a 1000 ppm solution, and placed in a hood to dry. When dry, each cotyledon is cut in half and each half is placed in one of ten 29.6 ml plastic medicine cups containing a 1.25 cm dental wick saturated with water, and one third instar budworm larva is added. The cup is capped and held for 3 days at 26.7° C., after which mortality counts are made. Compounds rated active (8 or 9) are further tested at reduced concentrations in 50% acetone:50% water.

[5] = system: Southern Armyworm [Spodoptera eridania (Cramer)]; assay: whole plant or invertebrate; format: in vivo; details: for mortality at 10 ppm / mortality at 100 ppm / mortality at 1000 ppm: 48 h, read-out: % kill, Southern Armyworm 3rd Instar; for pest or weed control at 1000 µg/mL: 168 h, second leaf, 7 days from original treatment, read-out: % kill, Southern Armyworm 3rd Instar, 7 days (residual activity)
Protocol: Southern Armyworm [Spodoptera eridania ([…] bean plant with just the primary leaves expanded to 7.6 to 10 cm is dipped for 3 seconds with agitation in a 1000 ppm solution and set in a hood to dry. […] The dish is covered and held at 26.7° C. After 2 days mortality counts and estimates of the amount of feeding are made. Compounds showing partial kill and/or inhibition of feeding are held for an extra day for further observations. All compounds showing activity as defined above are retested, using the second leaf on the bean plant, after an interval of 7 days from original treatment, as an assay of residual activity. Compounds rated active (8 or 9) are further tested at reduced concentrations in 50% acetone:50% water.

CCCCCCCCCCCCCCCC(=O)N1CC(C)(C)CN=C1NN=C(C=Cc1ccc(C(F)(F)F)cc1)C=Cc1ccc(C(F)(F)F)cc1 [drawing 33]
Solubility in Soybean oil, In % of w/w [1]: 2.0 % of w/w | Solubility in Soybean oil, In g/g of oil [1]: 0.02 g/g of oil

CC1(C)CN=C(NN=C(C=Cc2ccc(C(F)(F)F)cc2)C=Cc2ccc(C(F)(F)F)cc2)N(C(=O)c2ccccc2)C1 [drawing 32]
Solubility in Soybean oil, In % of w/w [1]: 0.4 % of w/w | Solubility in Soybean oil, In g/g of oil [1]: 0.004 g/g of oil

CC(=O)N1CC(C)(C)CN=C1NN=C(C=Cc1ccc(C(F)(F)F)cc1)C=Cc1ccc(C(F)(F)F)cc1 [drawing 31]
Solubility in Soybean oil, In % of w/w [1]: 0.3 % of w/w | Solubility in Soybean oil, In g/g of oil [1]: 0.003 g/g of oil

CC(=O)N1CCCCN=C1NN=C(C=Cc1ccc(C(F)(F)F)cc1)C=Cc1ccc(C(F)(F)F)cc1
mortality at 10 ppm [2]: 0 to 40% | mortality at 100 ppm [2]: 41 to 60% | mortality at 10 ppm [3]: 0% | mortality at 100 ppm [3]: 100% | mortality at 1000 ppm [3]: 100% | mortality at 10 ppm [4]: 0% | mortality at 100 ppm [4]: 70% | mortality at 1000 ppm [4]: 100% | mortality at 10 ppm [5]: 100% | mortality at 100 ppm [5]: 0% | mortality at 1000 ppm [5]: 100% | pest or weed control at 1000 µg/mL [5]: 100%

CC(=O)N1CC(C)(C)CN=C1NN=C(C=Cc1ccc(Cl)cc1)C=Cc1ccc(Cl)cc1 [R1=Cl, R3=CH3]
mortality at 10 ppm [2]: 0 to 40% | mortality at 100 ppm [2]: 100% | mortality at 10 ppm [3]: 0% | mortality at 100 ppm [3]: 100% | mortality at 1000 ppm [3]: 100% | mortality at 10 ppm [4]: 0% | mortality at 100 ppm [4]: 100% | mortality at 1000 ppm [4]: 100% | mortality at 100 ppm [5]: 100% | mortality at 1000 ppm [5]: 100%

CC1(C)CN=C(NN=C(C=Cc2ccc(C(F)(F)F)cc2)C=Cc2ccc(C(F)(F)F)cc2)NC1
Solubility in Soybean oil, In % of w/w [1]: 0.1 % of w/w | Solubility in Soybean oil, In g/g of oil [1]: 0.001 g/g of oil

CCCCCCCCCCCCCCCC(=O)N1CC(C)(C)CN=C1NN=C(C=Cc1ccc(C(F)(F)F)cc1)C=Cc1ccc(C(F)(F)F)cc1 [R1=CF3, R3=n-C15 H31]
mortality at 100 ppm [2]: 0 to 40% | mortality at 300 ppm [2]: 86 to 95% | mortality at 10 ppm [3]: 0% | mortality at 100 ppm [3]: 60% | mortality at 1000 ppm [3]: 100% | mortality at 10 ppm [4]: 0% | mortality at 100 ppm [4]: 30% | mortality at 1000 ppm [4]: 100% | mortality at 10 ppm [5]: 0% | mortality at 100 ppm [5]: 100% | mortality at 1000 ppm [5]: 100% | pest or weed control at 1000 µg/mL [5]: 80%
